From US9125913B2, “Bcl-2-selective apoptosis-inducing agents for the treatment of cancer and immune diseases” (AbbVie Inc., priority 2008, dated 2015)

Test system: GST-Bcl-2
Assay: TR-FRET binding assay, Bcl-2
Settings: TR-FRET Ki values
Outline: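 Ki values come from Wang's competitive-binding equation applied to TR-FRET signal (excitation 340/35 nm; emission 520/525 nm F-Bak peptide, 495/510 nm Tb antibody). Protein, probe and antibody incubated with compound 3 h at room temperature; dilution series began at 50 μM as 2× stock in 10% DMSO.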

Row | Compound | Binding selectivity ratio (Bcl-XL Ki/Bcl-2 Ki)
1 | CC1(C)CCC(CN2CCN(c3ccc(C(=O)NS(=O)(=O)c4ccc(NCCCn5ccnc5)c([N+](=O)[O-])c4)c(Oc4ccc5[nH]ccc5c4)c3)CC2)=C(c2ccc(Cl)cc2)C1 [EXAMPLE 377, 4-(4-{[2-(4-chlorophenyl)-4,4-dimethylcyclohex-1-en-1-yl]methyl}piperazin-1-yl)-N-[(4-{[3-(1H-imidazol-1-yl)propyl]amino}-3-nitrophenyl)sulfonyl]-2-(1H-indol-5-yloxy)benzamide] | 2317.4
2 | C[C@H](Nc1ccc(S(=O)(=O)NC(=O)c2ccc(N3CCN(CC4=C(c5ccc(Cl)cc5)CC(C)(C)CC4)CC3)cc2Oc2ccc3[nH]ccc3c2)cc1[N+](=O)[O-])c1ccccc1 [EXAMPLE 378, 4-(4-{[2-(4-chlorophenyl)-4,4-dimethylcyclohex-1-en-1-yl]methyl}piperazin-1-yl)-2-(1H-indol-5-yloxy)-N-[(3-nitro-4-{[(1S)-1-phenylethyl]amino}phenyl)sulfonyl]benzamide] | >10.5
3 | CC1(C)CCC(CN2CCN(c3ccc(C(=O)NS(=O)(=O)c4cc(F)c(NCC5CCOCC5)cc4Cl)c(Oc4ccc5[nH]ccc5c4)c3)CC2)=C(c2ccc(Cl)cc2)C1 [EXAMPLE 379, N-({2-chloro-5-fluoro-4-[(tetrahydro-2H-pyran-4-ylmethyl)amino]phenyl}sulfonyl)-4-(4-{[2-(4-chlorophenyl)-4,4-dimethylcyclohex-1-en-1-yl]methyl}piperazin-1-yl)-2-(1H-indol-5-yloxy)benzamide] | >2.6
4 | COCCOCCSc1ccc(S(=O)(=O)NC(=O)c2ccc(N3CCN(CC4=C(c5ccc(Cl)cc5)CC(C)(C)CC4)CC3)cc2Oc2ccc3[nH]ccc3c2)cc1[N+](=O)[O-] [EXAMPLE 380, 4-(4-{[2-(4-chlorophenyl)-4,4-dimethylcyclohex-1-en-1-yl]methyl}piperazin-1-yl)-2-(1H-indol-5-yloxy)-N-[(4-{[2-(2-methoxyethoxy)ethyl]thio}-3-nitrophenyl)sulfonyl]benzamide] | 2107.3
5 | COCCOCCSc1ccc(S(=O)(=O)NC(=O)c2ccc(N3CCN(CC4=C(c5ccc(Cl)cc5)CC(C)(C)CC4)CC3)cc2Oc2cccc3[nH]ccc23)cc1[N+](=O)[O-] [EXAMPLE 381, 4-(4-{[2-(4-chlorophenyl)-4,4-dimethylcyclohex-1-en-1-yl]methyl}piperazin-1-yl)-2-(1H-indol-4-yloxy)-N-[(4-{[2-(2-methoxyethoxy)ethyl]thio}-3-nitrophenyl)sulfonyl]benzamide] | 448.3
6 | CC1(C)CCC(CN2CCN(c3ccc(C(=O)NS(=O)(=O)c4ccc(S(C)(=O)=O)cc4)c(Oc4ccc5[nH]ccc5c4)c3)CC2)=C(c2ccc(Cl)cc2)C1 [EXAMPLE 382, 4-(4-{[2-(4-chlorophenyl)-4,4-dimethylcyclohex-1-en-1-yl]methyl}piperazin-1-yl)-2-(1H-indol-5-yloxy)-N-{[4-(methylsulfonyl)phenyl]sulfonyl}benzamide] | >573.9
7 | CC1(C)CCC(CN2CCN(c3ccc(C(=O)NS(=O)(=O)c4ccc(S(C)(=O)=O)cc4)c(Oc4cccc5[nH]ccc45)c3)CC2)=C(c2ccc(Cl)cc2)C1 [EXAMPLE 383, 4-(4-{[2-(4-chlorophenyl)-4,4-dimethylcyclohex-1-en-1-yl]methyl}piperazin-1-yl)-2-(1H-indol-4-yloxy)-N-{[4-(methylsulfonyl)phenyl]sulfonyl}benzamide] | >304.1
8 | CC1(C)CCC(CN2CCN(c3ccc(C(=O)NS(=O)(=O)c4ccc(OCC5CCOC(C)(C)C5)c([N+](=O)[O-])c4)c(Oc4ccc5[nH]ccc5c4)c3)CC2)=C(c2ccc(Cl)cc2)C1 (centres unmarked) [EXAMPLE 384, 4-(4-{[2-(4-chlorophenyl)-4,4-dimethylcyclohex-1-en-1-yl]methyl}piperazin-1-yl)-N-({4-[(2,2-dimethyltetrahydro-2H-pyran-4-yl)methoxy]-3-nitrophenyl}sulfonyl)-2-(1H-indol-5-yloxy)benzamide] | >8684.2
9 | CC1(C)CCC(CN2CCN(c3ccc(C(=O)NS(=O)(=O)c4cnc(OCC5(F)CCOCC5)c(C#N)c4)c(Oc4ccc5[nH]ccc5c4)c3)CC2)=C(c2ccc(Cl)cc2)C1 [EXAMPLE 385, 4-(4-{[2-(4-chlorophenyl)-4,4-dimethylcyclohex-1-en-1-yl]methyl}piperazin-1-yl)-N-({5-cyano-6-[(4-fluorotetrahydro-2H-pyran-4-yl)methoxy]pyridin-3-yl}sulfonyl)-2-(1H-indol-5-yloxy)benzamide] | 2096.5
10 | CC1(C)CCC(CN2CCN(c3ccc(C(=O)NS(=O)(=O)c4cnc(OCC5CCOCC5)c(C#N)c4)c(Oc4cccc5[nH]ccc45)c3)CC2)=C(c2ccc(Cl)cc2)C1 [EXAMPLE 386, 4-(4-{[2-(4-chlorophenyl)-4,4-dimethylcyclohex-1-en-1-yl]methyl}piperazin-1-yl)-N-{[5-cyano-6-(tetrahydro-2H-pyran-4-ylmethoxy)pyridin-3-yl]sulfonyl}-2-(1H-indol-4-yloxy)benzamide] | 494.5
11 | CC1(C)CCC(CN2CCN(c3ccc(C(=O)NS(=O)(=O)c4cnc(OCC5CCOCC5)c(Cl)c4)c(Oc4cccc5[nH]ccc45)c3)CC2)=C(c2ccc(Cl)cc2)C1 [EXAMPLE 387, 4-(4-{[2-(4-chlorophenyl)-4,4-dimethylcyclohex-1-en-1-yl]methyl}piperazin-1-yl)-N-{[5-chloro-6-(tetrahydro-2H-pyran-4-ylmethoxy)pyridin-3-yl]sulfonyl}-2-(1H-indol-4-yloxy)benzamide] | 1723.4
12 | CC1(C)CCC(CN2CCN(c3ccc(C(=O)NS(=O)(=O)c4cnc(OCCN5CCOCC5)c(C#N)c4)c(Oc4ccc5[nH]ccc5c4)c3)CC2)=C(c2ccc(Cl)cc2)C1 [EXAMPLE 388, 4-(4-{[2-(4-chlorophenyl)-4,4-dimethylcyclohex-1-en-1-yl]methyl}piperazin-1-yl)-N-{[5-cyano-6-(2-morpholin-4-ylethoxy)pyridin-3-yl]sulfonyl}-2-(1H-indol-5-yloxy)benzamide] | 185.1
13 | CC1(C)CCC(CN2CCN(c3ccc(C(=O)NS(=O)(=O)c4ccc(OC5CCN(C6CCOCC6)CC5)c([N+](=O)[O-])c4)c(Oc4ccc5[nH]ccc5c4)c3)CC2)=C(c2ccc(Cl)cc2)C1 [EXAMPLE 389, 4-(4-{[2-(4-chlorophenyl)-4,4-dimethylcyclohex-1-en-1-yl]methyl}piperazin-1-yl)-2-(1H-indol-5-yloxy)-N-({3-nitro-4-[(1-tetrahydro-2H-pyran-4-ylpiperidin-4-yl)oxy]phenyl}sulfonyl)benzamide] | 685.5
14 | CC1(C)CCC(CN2CCN(c3ccc(C(=O)NS(=O)(=O)c4ccc(OCC#CCN5CCOCC5)c([N+](=O)[O-])c4)c(Oc4ccc5[nH]ccc5c4)c3)CC2)=C(c2ccc(Cl)cc2)C1 [EXAMPLE 390, 4-(4-{[2-(4-chlorophenyl)-4,4-dimethylcyclohex-1-en-1-yl]methyl}piperazin-1-yl)-2-(1H-indol-5-yloxy)-N-({4-[(4-morpholin-4-ylbut-2-ynyl)oxy]-3-nitrophenyl}sulfonyl)benzamide] | 339.6
15 | C#Cc1cc(S(=O)(=O)NC(=O)c2ccc(N3CCN(CC4=C(c5ccc(Cl)cc5)CC(C)(C)CC4)CC3)cc2Oc2cccc3[nH]ccc23)cnc1OCC1CCOCC1 [EXAMPLE 391, 4-(4-{[2-(4-chlorophenyl)-4,4-dimethylcyclohex-1-en-1-yl]methyl}piperazin-1-yl)-N-{[5-ethynyl-6-(tetrahydro-2H-pyran-4-ylmethoxy)pyridin-3-yl]sulfonyl}-2-(1H-indol-4-yloxy)benzamide] | >186.4
16 | CC1(C)CCC(CN2CCN(c3ccc(C(=O)NS(=O)(=O)c4cnc(OCCN5CCOCC5)c(C#N)c4)c(Oc4cccc5[nH]ccc45)c3)CC2)=C(c2ccc(Cl)cc2)C1 [EXAMPLE 392, 4-(4-{[2-(4-chlorophenyl)-4,4-dimethylcyclohex-1-en-1-yl]methyl}piperazin-1-yl)-N-{[5-cyano-6-(2-morpholin-4-ylethoxy)pyridin-3-yl]sulfonyl}-2-(1H-indol-4-yloxy)benzamide] | 320.2
17 | CC1(C)CCC(CN2CCN(c3ccc(C(=O)NS(=O)(=O)c4cnc(OCC5(F)CCOCC5)c(C#N)c4)c(Oc4cccc5[nH]ccc45)c3)CC2)=C(c2ccc(Cl)cc2)C1 [EXAMPLE 393, 4-(4-{[2-(4-chlorophenyl)-4,4-dimethylcyclohex-1-en-1-yl]methyl}piperazin-1-yl)-N-({5-cyano-6-[(4-fluorotetrahydro-2H-pyran-4-yl)methoxy]pyridin-3-yl}sulfonyl)-2-(1H-indol-4-yloxy)benzamide] | 1110
18 | COc1ccc(Nc2ccc(S(=O)(=O)NC(=O)c3ccc(N4CCN(CC5=C(c6ccc(Cl)cc6)CC(C)(C)CC5)CC4)cc3Oc3ccc4[nH]ccc4c3)cc2[N+](=O)[O-])cc1O [EXAMPLE 394, 4-(4-{[2-(4-chlorophenyl)-4,4-dimethylcyclohex-1-en-1-yl]methyl}piperazin-1-yl)-N-({4-[(3-hydroxy-4-methoxyphenyl)amino]-3-nitrophenyl}sulfonyl)-2-(1H-indol-5-yloxy)benzamide] | >263262.863980854
19 | CN1CCC(Nc2ccc(S(=O)(=O)NC(=O)c3ccc(N4CCN(CC5=C(c6ccc(Cl)cc6)CC(C)(C)CC5)CC4)cc3Oc3cccc4c3CCN4)cc2[N+](=O)[O-])CC1 [EXAMPLE 395, 4-(4-{[2-(4-chlorophenyl)-4,4-dimethylcyclohex-1-en-1-yl]methyl}piperazin-1-yl)-2-(2,3-dihydro-1H-indol-4-yloxy)-N-({4-[(1-methylpiperidin-4-yl)amino]-3-nitrophenyl}sulfonyl)benzamide] | 23.62
20 | CN1CCC(Nc2ccc(S(=O)(=O)NC(=O)c3ccc(N4CCN(CC5=C(c6ccc(Cl)cc6)CC(C)(C)CC5)CC4)cc3Nc3cccnc3)cc2[N+](=O)[O-])CC1 [EXAMPLE 396, 4-(4-{[2-(4-chlorophenyl)-4,4-dimethylcyclohex-1-en-1-yl]methyl}piperazin-1-yl)-N-({4-[(1-methylpiperidin-4-yl)amino]-3-nitrophenyl}sulfonyl)-2-(pyridin-3-ylamino)benzamide] | >5706
